Measured values published in US11040036B2, “Pyruvate kinase activators for use in treating blood disorders” (Agios Pharmaceuticals, Inc., priority 2017, dated 2021).

Assays:
PKR K410E = PKR K410E (Homo sapiens, UniProt P30613, K410E); experiment: PKR mutant assay (AC50), PKR K410E; assay type: biochemical; details: PKR K410E mutant enzyme
Protocol: (§1) Example 11. PKR Mutant Assay
(§2) PKR or PKR mutant enzyme solution was diluted into a reaction mix, which contains 1× buffer (100 mM KCl, 50 mM Tris pH 7.5, 5 mM MgCl2) as well as PEP (cont depends on enzyme), 180 μM NADH, 0.5 units LDH, 1 mM DTT, 0.03% BSA; final assay concentrations after 1.11 fold dilution are indicated.
(§3) 2 μL of test compound was added into wells first, and then 180 μL reaction mix was added.
(§4) Reactions mixture with test compound was assembled except for ADP, and plates were stored for 60 minutes at room temperature.
(§5) 20 uL ADP was added to start reaction at room temperature and reaction progress was measured as changes in absorbance at 340 nm wavelength at room temperature.
(§6) Test Compound Preparation:
(§7) Test compound stock was made at 100× concentration in 100% DMSO (10 mM)
(§8) 1 to 3 dilutions were made for 11 points (i.e. 50 μl of first concentration added to 100 μl 100% DMSO to yield 3.33 mM, 50 μl of this added to 100 μl DMSO to yield 1.11 mM, and so forth) • 1 to 100 dilution into assay (2 μl in 200 μl) yielded starting concentration of 100 μM, decreasing 3 fold for 11 points.
(§9) Assay Buffer: 100 mM KCl, 50 mM Tris 7.5, 5 mM MgCl2, 1 ruM DTT, 0.03% BSA
(§10) Reaction Mixture: PKR mutant enzyme: 40-400 ng/well; ADP: 0.2-1.65 mM; PEP: 0.1-0.5 mM; NADH:180 μM; LDH: 0.5 units (Sigma #59023); DTT: 1 mM; BSA: 0.03%.

wild type PKR [1] = target: T1, wild type PKR (Homo sapiens, UniProt P30613); experiment: PKR mutant assay (AC50), wild type PKR; assay type: biochemical; details: wild type PKR enzyme; for AC50: read-out: PKR WT AC50
T1 sequence (P30613 whole entry): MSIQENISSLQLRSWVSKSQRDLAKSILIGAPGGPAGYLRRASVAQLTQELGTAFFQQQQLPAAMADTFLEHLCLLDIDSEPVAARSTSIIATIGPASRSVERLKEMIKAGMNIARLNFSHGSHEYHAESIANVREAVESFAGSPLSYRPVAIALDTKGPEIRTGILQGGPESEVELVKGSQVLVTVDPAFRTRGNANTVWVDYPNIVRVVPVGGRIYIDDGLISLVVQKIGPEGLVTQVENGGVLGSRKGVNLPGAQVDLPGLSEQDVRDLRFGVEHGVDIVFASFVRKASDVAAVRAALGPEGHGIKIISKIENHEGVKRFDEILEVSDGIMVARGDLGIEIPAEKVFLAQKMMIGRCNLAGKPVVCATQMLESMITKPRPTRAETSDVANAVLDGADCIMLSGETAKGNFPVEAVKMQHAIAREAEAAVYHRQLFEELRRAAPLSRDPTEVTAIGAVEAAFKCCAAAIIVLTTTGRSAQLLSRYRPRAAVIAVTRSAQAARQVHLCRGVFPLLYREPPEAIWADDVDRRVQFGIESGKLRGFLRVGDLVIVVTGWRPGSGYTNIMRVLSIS
Protocol: as §1, §2, §3, §4, §5, §6, §7, §8, §9, §10

PKR R510Q = PKR R510Q (Homo sapiens, UniProt P30613, R510Q); experiment: PKR mutant assay (AC50), PKR R510Q; assay type: biochemical; details: PKR R510Q mutant enzyme; for AC50: read-out: PK R510Q AC50
Chain of PKR R510Q (P30613 whole entry R510Q): as the sequence (P30613 whole entry) above, with R510Q counted along it
Protocol: as §1, §2, §3, §4, §5, §6, §7, §8, §9, §10

wild type PKR [2] = target: T1, wild type PKR; experiment: Cell based ATP assay in purified red blood cells; parameters: endogenous in cells; host or cells: purified red blood cells from blood of healthy volunteers; details: RBCs, overnight at 37° C., ATP levels by Cell-Titer-Glo
Protocol: Example 16. Red Blood Cell (RBC) Purification
Fresh blood drawn from healthy volunteers into K2EDTA tubes was collected. Whole blood was pelleted by spinning at 500 g for 10 minutes. Cut transfusion bag port off of Purecell leukocyte reduction neofilter (Fisher NCO267633) one (1) inch above filter. Attach a 10 ml syringe barrel to the remaining cut tubing attached to neofilter. The plasma layer was removed from the pellet of the whole blood and the pellet was resuspended in 2× volume of phosphate buffered saline (PBS). Transfer 9 ml re-suspended blood cell pellet to prepared 10 ml syringe that is attached to the neofilter. Allow whole blood to gravity flow through filter until all fluid runs through upper tubing into filter disc. Add plunger to the syringe, remove syringe from clamp and invert the filter, then plunge air through the syringe filter system. Using a new 5 ml syringe, remove filtered RBCs from the bag by the syringe port and transfer purified RBCs to a 5 ml snap cap tube that has been incubated on ice. Spin 5 ml snap cap tube at 500 g for 10 minutes at 15 C, aspirate supernatant and resuspend in AGAM (1×PBS, 1% glucose, 170 mg/L adenine, 5.25 g/L mannitol) at a density of 4×10^9 cells/mL.
Example 17. Cell Based ATP Assay
For cell based ATP assays, the compound as described herein was prepared in 100% DMSO as a 10 mM stock. Serial dilutions (1:4) were performed in 96-well V-bottom storage plate and then added 1:100 to 96-well V-bottom plates containing AGAM. RBCs were diluted in AGAM media to a density of 1×10^7 cells/mL before added 90 μL/well to black clear bottom assay plates (final compound concentration at 0.1% DMSO concentration). Assay plates were sealed using aluminum foil seals and incubated overnight at 37° C. in a humidified chamber. ATP levels were read out using Cell-Titer-Glo (Promega).

Chain of PKR K410E (P30613 whole entry K410E): as the sequence (P30613 whole entry) above, with K410E counted along it

AC50 (PKR K410E) [nM] | AC50 (wild type PKR [1]) [nM] | AC50 (PKR R510Q) [nM] | AC50 (wild type PKR [2]) [nM] | PKR K410E AC50 (PKR K410E) | PKR WT AC50 (wild type PKR [1]) | PK R510Q AC50 (PKR R510Q) | Cell based ATP assay AC50 (wild type PKR [2]) | SMILES
< 300 | < 300 | < 300 | ≤ 1000 |  |  |  |  | Cn1c2nc(Cc3cc[nH]n3)sc2c2cnn(Cc3csc(C(N)=O)n3)c(=O)c21
< 300 | < 300 | < 300 | ≤ 1000 |  |  |  |  | Cn1c2nc(Cc3cc[nH]n3)sc2c2cnn(Cc3cncs3)c(=O)c21
< 300 | < 300 | < 300 | ≤ 1000 |  |  |  |  | Cc1cccc(Cn2ncc3c4sc(Cc5cc[nH]n5)nc4n(C)c3c2=O)n1
< 300 | < 300 | < 300 | ≤ 1000 |  |  |  |  | Cn1c2nc(Cc3cccc(N)n3)sc2c2cnn(Cc3cc[nH]n3)c(=O)c21
< 300 | < 300 | < 300 | ≤ 1000 |  |  |  |  | Cn1c2nc(Cc3cc[nH]n3)sc2c2cnn(Cc3c[nH]c(N)n3)c(=O)c21
< 300 | < 300 | < 300 | ≤ 1000 |  |  |  |  | Cn1c2nc(Cc3cc[nH]n3)sc2c2cnn(Cc3ccc(F)c(Br)n3)c(=O)c21
< 300 | < 300 | < 300 | ≤ 1000 |  |  |  |  | Cn1c2nc(Cc3cc[nH]n3)sc2c2cnn(Cc3nc(N)ccc3F)c(=O)c21
< 300 | < 300 | < 300 | ≤ 1000 |  |  |  |  | CN(C)c1cccc(Cn2ncc3c4sc(Cc5cc[nH]n5)nc4n(C)c3c2=O)n1
< 300 | < 300 | < 300 | ≤ 1000 |  |  |  |  | CN(C)c1cccc(Cc2nc3c(s2)c2cnn(Cc4cc[nH]n4)c(=O)c2n3C)n1
< 300 | < 300 | < 300 | ≤ 1000 |  |  |  |  | Cn1c2nc(Cc3cc[nH]n3)sc2c2cnn(Cc3cc(Cl)[nH]n3)c(=O)c21
< 300 | < 300 | < 300 | ≤ 1000 |  |  |  |  | COc1ccc(Cn2ncc3c4sc(Cc5cc[nH]n5)nc4n(C)c3c2=O)nc1N
< 300 | < 300 | < 300 | ≤ 1000 |  |  |  |  | Cn1c2nc(Cc3cc[nH]n3)sc2c2cnn(Cc3ccsn3)c(=O)c21
> 800 | > 800 | > 800 | > 1000 |  |  |  |  | Cn1nncc1Cn1ncc2c3sc(Cc4cc[nH]n4)nc3n(C)c2c1=O
< 300 | < 300 | < 300 | ≤ 1000 |  |  |  |  | Cn1ncc(Cn2ncc3c4sc(Cc5cc[nH]n5)nc4n(C)c3c2=O)n1

Second part, the compound before the results:

SMILES | AC50 (PKR K410E) [nM] | AC50 (wild type PKR [1]) [nM] | AC50 (PKR R510Q) [nM] | AC50 (wild type PKR [2]) [nM] | PKR K410E AC50 (PKR K410E) | PKR WT AC50 (wild type PKR [1]) | PK R510Q AC50 (PKR R510Q) | Cell based ATP assay AC50 (wild type PKR [2])
Cn1c2nc(Cc3cccc(N)n3)sc2c2cnn(Cc3cscn3)c(=O)c21 | < 300 | < 300 | < 300 | ≤ 1000 |  |  |  | 
Cn1c2nc(Cc3cc[nH]n3)sc2c2cnn(Cc3[nH]ncc3Cl)c(=O)c21 | < 300 | < 300 | < 300 | ≤ 1000 |  |  |  | 
Cn1c2nc(Cc3c[nH]nn3)sc2c2cnn(Cc3csc(N)n3)c(=O)c21 | < 300 | < 300 | < 300 | ≤ 1000 |  |  |  | 
Cn1c2nc(Cc3c[nH]nn3)sc2c2cnn(Cc3c[nH]nn3)c(=O)c21 | < 300 | < 300 | < 300 | ≤ 1000 |  |  |  | 
Cn1c2nc(Cc3ccccn3)sc2c2cnn(Cc3cccc(N)n3)c(=O)c21 | < 300 | < 300 | < 300 | ≤ 1000 |  |  |  | 
Cn1c2nc(Cc3csc(CO)n3)sc2c2cnn(Cc3cn[nH]n3)c(=O)c21 | < 300 | < 300 | < 300 | ≤ 1000 |  |  |  | 
Cn1c2nc(C(O)c3cc[nH]n3)sc2c2cnn(Cc3cc[nH]n3)c(=O)c21 (stereo not drawn) | < 300 | < 300 | < 300 | ≤ 1000 |  |  |  | 
Cn1c2nc(Cc3c[nH]nn3)sc2c2cnn(Cc3cccc(N)n3)c(=O)c21 | < 300 | < 300 | < 300 | ≤ 1000 |  |  |  | 
Cn1c2nc(Cc3cscn3)sc2c2cnn(Cc3c[nH]nn3)c(=O)c21 | < 300 | < 300 | < 300 | ≤ 1000 |  |  |  | 
Cn1c2nc(Cc3cscn3)sc2c2cnn(Cc3cccc(N)n3)c(=O)c21 | < 300 | < 300 | < 300 | ≤ 1000 |  |  |  | 
Cn1c2nc(Cc3csc(CO)n3)sc2c2cnn(Cc3cccc(N)n3)c(=O)c21 | < 300 | < 300 | < 300 | ≤ 1000 |  |  |  | 
Cn1c2nc(Cc3cc[nH]n3)sc2c2cnn(Cc3n[nH]cc3F)c(=O)c21 | < 300 | < 300 | < 300 | ≤ 1000 |  |  |  | 
Cn1c2nc(Cn3cncn3)sc2c2cnn(Cc3cc[nH]n3)c(=O)c21 | < 300 | < 300 | < 300 | ≤ 1000 |  |  |  | 
Cn1c2nc(Cn3ccnc3)sc2c2cnn(Cc3cc[nH]n3)c(=O)c21 | < 300 | < 300 | 301 to 800 | ≤ 1000 |  |  |  | 
Cn1c2nc(Cn3cnnc3)sc2c2cnn(Cc3cc[nH]n3)c(=O)c21 | > 800 | > 800 | > 800 | > 1000 |  |  |  | 
Cn1c2nc(Cc3ncsc3Cl)sc2c2cnn(Cc3c[nH]nn3)c(=O)c21 | < 300 | < 300 | < 300 | ≤ 1000 |  |  |  | 
Cn1c2nc(Cc3ncsc3Cl)sc2c2cnn(Cc3cc[nH]n3)c(=O)c21 | < 300 | < 300 | < 300 | ≤ 1000 |  |  |  | 
Cn1c2nc(Cn3cccn3)sc2c2cnn(Cc3cc[nH]n3)c(=O)c21 | < 300 | < 300 | < 300 | ≤ 1000 |  |  |  | 
Cn1c2nc([C@H](O)c3cc[nH]n3)sc2c2cnn(Cc3cc[nH]n3)c(=O)c21 | < 300 | < 300 | < 300 | ≤ 1000 |  |  |  | 
Cn1c2nc([C@@H](O)c3cc[nH]n3)sc2c2cnn(Cc3cc[nH]n3)c(=O)c21 | < 300 | < 300 | < 300 | ≤ 1000 |  |  |  | 
Cn1c2nc(Cc3nc(N)ccc3F)sc2c2cnn(Cc3cc[nH]n3)c(=O)c21 | < 300 | < 300 | < 300 | ≤ 1000 |  |  |  | 
Cn1ccc(Cn2ncc3c4sc(Cc5cccc(N)n5)nc4n(C)c3c2=O)n1 | < 300 | < 300 | < 300 | ≤ 1000 |  |  |  | 
Cn1ccc(Cc2nc3c(s2)c2cnn(Cc4ccn[nH]4)c(=O)c2n3C)n1 | < 300 | < 300 | < 300 | ≤ 1000 |  |  |  | 
Cc1scnc1Cc1nc2c(s1)c1cnn(Cc3ccn[nH]3)c(=O)c1n2C | < 300 | < 300 | < 300 | ≤ 1000 |  |  |  | 
Cn1c2nc(Cc3nc(N)sc3F)sc2c2cnn(Cc3cc[nH]n3)c(=O)c21 | < 300 | < 300 | < 300 | ≤ 1000 |  |  |  | 
Cn1c2nc(Cn3ccc([N+](=O)[O-])n3)sc2c2cnn(Cc3cc[nH]n3)c(=O)c21 | < 300 | < 300 | < 300 | ≤ 1000 |  |  |  | 
Cn1c2nc(Cn3ccnn3)sc2c2cnn(Cc3cc[nH]n3)c(=O)c21 | < 300 | < 300 | < 300 | ≤ 1000 |  |  |  | 
Cn1c2nc(Cn3cncn3)sc2c2cnn(Cc3n[nH]c(=O)[nH]3)c(=O)c21 |  |  |  |  | No Fit | No Fit | No Fit | No Fit
